Literature values in patent US20260276655A1, “BIOMARKERS OF AMYOTROPHIC LATERAL SCLEROSIS AND USES THEREOF” (The Methodist Hospital, priority 2023, published 2026).

Assays:
[1] = normal physiological conditions
ALS patients = conditions: administered to ALS patients

Row | half-life [1] | Structure (SMILES) | outcome of phase 3 clinical trial (ALS patients)
1 | less than 2 minutes | CCCCCC(O)/C=C/C=O (centres unmarked) [4-HNE, 4-hydroxynonenal] | –
2 | – | CO/N=C(\C(=O)N[C@@H]1C(=O)N2C(C(=O)O)=C(CSc3nc(=O)c(=O)[nH]n3C)CS[C@H]12)c1csc(N)n1 [ceftriaxone, (6R,7R)-7-[[(2Z)-2-(2-amino-1,3-thiazol-4-yl)-2-methoxyiminoacetyl]amino]-3-[(2-methyl-5,6-dioxo-1H-1,2,4-triazin-3-yl)sulfanylmethyl]-8-ox o-5-thia-1-azabicyclo[4.2.0]oct-2-ene-2-carboxylic acid] | failed
